Source: ChEMBL document CHEMBL3580538, “Cytotoxic and antiviral nitrobenzoyl sesquiterpenoids from the marine-derived fungus Aspergillus ochraceus Jcma1F17” (Medchemcomm, 2014)

Tests used:
MOLT-4 = assay: Cytotoxicity against human MOLT4 cells assessed as cell viability after 72 hrs by CCK8 assay; assay type: functional, cell-based; settings: MOLT-4, 72 h
U-937 = assay: Cytotoxicity against human U937 cells assessed as cell viability after 72 hrs by CCK8 assay; assay type: functional, cell-based; settings: U-937, 72 h
HeLa = assay: Cytotoxicity against human HeLa cells assessed as cell viability after 72 hrs by CCK8 assay; assay type: functional, cell-based
Enterovirus = assay: Antiviral activity against EV71 infected in african green monkey Vero cells assessed as reduction in virus-induced cytopathic effect after 72 to 96 hrs by CCK8 assay; assay type: functional, organism-based; settings: Enterovirus, 71, Vero
[1] = Cytotoxicity against human BGC823 cells assessed as cell viability after 72 hrs by CCK8 assay; assay type: functional, cell-based; settings: BGC-823, 72 h
NCI-H1975 = assay: Cytotoxicity against human NCI-H1975 cells assessed as cell viability after 72 hrs by CCK8 assay; assay type: functional, cell-based; settings: NCI-H1975, 72 h
HL-60 = assay: Cytotoxicity against human HL60 cells assessed as cell viability after 72 hrs by CCK8 assay; assay type: functional, cell-based; settings: HL-60, 72 h
[2] = Cytotoxicity against human HuH7 cells assessed as cell viability after 72 hrs by CCK8 assay; assay type: functional, cell-based; settings: Huh-7, 72 h
MCF7 = assay: Cytotoxicity against human MCF7 cells assessed as cell viability after 72 hrs by CCK8 assay; assay type: functional, cell-based; settings: MCF7, 72 h
[3] = Antiviral activity against Influenza A virus A/Hong Kong/8/68 H3N2 infected in MDCK cells assessed as reduction in virus-induced cytopathic effect after 3 days by CCK8 assay; assay type: functional, cell-based, Influenza A virus (A/Hong Kong/8/1968([…])); settings: 72 h
K562 = assay: Cytotoxicity against human K562 cells assessed as cell viability after 72 hrs by CCK8 assay; assay type: functional, cell-based; settings: K562, 72 h
A549 = assay: Cytotoxicity against human A549 cells assessed as cell viability after 72 hrs by CCK8 assay; assay type: functional, cell-based; settings: A549, 72 h
[4] = tested on: Mycobacterium tuberculosis; assay: Antituberculosis activity against Mycobacterium tuberculosis H37Ra after 3 days by autoluminescent assay; assay type: functional, organism-based

| SMILES | IC50 (MOLT-4) [µM] | IC50 (U-937) [µM] | IC50 (HeLa) [µM] | IC50 (Enterovirus) [µM] | IC50 [1] [µM] | IC50 (NCI-H1975) [µM] | IC50 (HL-60) [µM] | IC50 [2] [µM] | IC50 (MCF7) [µM] | IC50 [3] [µM] | IC50 (K562) [µM] | IC50 (A549) [µM] | IC50 [4] |
| --- | --- | --- | --- | --- | --- | --- | --- | --- | --- | --- | --- | --- | --- |
| C[C@]1(COC(=O)c2ccc([N+](=O)[O-])cc2)CCC[C@@]2(C)[C@H]1[C@H](O)C=C1C(=O)OC[C@@]12O | 2.39 | 1.95 | 6.12 | 9.4 | 2.32 | 2.08 | 2.44 | 3.28 | 4.25 | 17 | 4.33 | 2.41 | Not Active |
| C[C@]1(CO)CCC[C@@]2(C)[C@H]1[C@H](OC(=O)c1ccc([N+](=O)[O-])cc1)C=C1C(=O)OC[C@@]12O | 2.11 | 3.97 | 6.35 | 50 | 2.78 | 4.63 | 2.34 | 2.35 | 6.08 | 50 | 4.76 | 2.86 | Not Active |
| CC(/C=C/C(=O)NO)=C\[C@@H](C)C(=O)c1ccc(N(C)C)cc1 [TRICHOSTATIN] |  | 0.05 | 0.1 | 0.6 | 0.08 | 0.09 | 0.03 | 0.09 |  | 0.008 | 0.16 |  | Not Active |
